# “And” between values parts separate entries of the source, which are not always exact repeats. Equal entries are not always repeated. Where two headings read alike, the source gives them in different places.
# Legend:
# [1] = target: T1, TGFβR1 (Homo sapiens, UniProt P36897); test: In vitro enzymatic activity inhibition test (TGFβR1), ADP-Glo Kinase Detection Kit; format: biochemical; conditions: calculated from percent inhibition at 1000 nM, 100 nM, 10 nM
# T1 sequence (P36897 34-503): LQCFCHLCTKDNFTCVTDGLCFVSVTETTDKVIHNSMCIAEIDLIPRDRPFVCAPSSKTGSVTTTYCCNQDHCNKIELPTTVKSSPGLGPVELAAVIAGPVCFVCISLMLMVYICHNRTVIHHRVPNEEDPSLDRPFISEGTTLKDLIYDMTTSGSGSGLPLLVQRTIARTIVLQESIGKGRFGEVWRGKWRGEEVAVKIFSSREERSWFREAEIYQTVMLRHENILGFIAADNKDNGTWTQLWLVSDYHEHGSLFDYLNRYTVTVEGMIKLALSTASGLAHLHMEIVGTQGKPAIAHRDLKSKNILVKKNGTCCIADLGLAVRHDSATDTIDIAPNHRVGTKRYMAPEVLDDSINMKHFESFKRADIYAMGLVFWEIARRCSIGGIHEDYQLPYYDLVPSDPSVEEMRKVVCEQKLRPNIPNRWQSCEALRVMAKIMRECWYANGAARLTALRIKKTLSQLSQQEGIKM
# Method: Test Example 1: In vitro enzymatic activity inhibition test (TGFβR1).
# (§1) Experimental method: According to the instructions of ADP-Glo™ Kinase Detection Kit (Promega), the inhibitory effect of the compounds of the present invention on the enzymatic activity of TGFβR1 was determined, and the steps were as follows: TGFβR1 enzyme were pre-incubated with different concentrations of test compounds (1000 nM, 100 nM, 10 nM) at 30°C for 30 min, TGFβR1 peptide and adenosine triphosphate (ATP) were added to initiate the reaction. The incubation was performed at 30°C for 3 h, followed by an addition of ADP-Glo™ reagent and incubated at room temperature for 90 min, kinase detection reagent was then added. Chemiluminescence signal values were detected after incubation at room temperature for another 30 min.
# (§2) When the percent inhibition rate was between 30% and 80%, the median inhibitory concentration (IC50) or range of the compound was calculated according to the following formula: IC50 = X × (1 - percent inhibition rate (%)) / percent inhibition rate (%), wherein X is the concentration of the compound at which the inhibition rate is between 30% and 80%.
# [2] = system: TGFβ/Smads signaling pathway in HEK293-SBE cells; test: In vitro cell activity inhibition test, Bright-Glo luciferase reporter in HEK293-SBE cells; format: cell-based; conditions: TGFβ 0.5 ng/ml, luciferase reporter gene method
# Method: Test Example 3: In vitro cell activity inhibition test
# Experimental method: According to the instructions of Bright-Glo™ luciferase detection kit (Promega), the inhibitory effect of the compounds of the present invention on TGFβ/Smads signaling pathway in HEK293-SBE cells was determined. The steps were as follows: HEK293-SBE cells (Bps bioscience) were added to a 96-well plate (10% FBS medium), 30,000/well, and cultured overnight at 37°C and 5% CO2. The medium was changed to 0.5% FBS medium, and the test compound diluted in 0.5% FBS medium was added. The highest final concentration of the test compound was 10 µM with 4-fold dilution, and a total of 8 concentration gradients. After 4-5 hours of incubation, 10 µl of TGFβ was added. The final concentration of TGFβ was 0.5 ng/ml. 10 µl of medium added in replace of TGFβ was the negative control. In the blank control, no test compound was added, and TGFβ was added. Bright Glo reagent was added to each well, and the chemiluminescence signal value was read on a microplate reader.
# The percent inhibition rates of the test compound at different concentrations were plotted against the compound concentrations, the curve was fitted according to the four-parameter model, and the IC50 value was calculated by the following formula: y = Min + (Max - Min) / (1 + (x / IC50) ^ (-Hillslope)), wherein: y is percentage inhibition rate; Max and Min are the maximum and minimum values of the fitted curve, respectively; x is the logarithmic concentration of compound; and Hillslope is the slope of the curve.
# [3] = target: TGFβR2 (Homo sapiens, UniProt P37173); test: In vitro enzymatic activity inhibition test (TGFβR2), ADP-Glo Kinase Detection Kit; format: biochemical; conditions: MBP substrate, calculated from percent inhibition at 1000nM, 100nM, 10nM
# Chain of TGFβR2 (P37173 23-567): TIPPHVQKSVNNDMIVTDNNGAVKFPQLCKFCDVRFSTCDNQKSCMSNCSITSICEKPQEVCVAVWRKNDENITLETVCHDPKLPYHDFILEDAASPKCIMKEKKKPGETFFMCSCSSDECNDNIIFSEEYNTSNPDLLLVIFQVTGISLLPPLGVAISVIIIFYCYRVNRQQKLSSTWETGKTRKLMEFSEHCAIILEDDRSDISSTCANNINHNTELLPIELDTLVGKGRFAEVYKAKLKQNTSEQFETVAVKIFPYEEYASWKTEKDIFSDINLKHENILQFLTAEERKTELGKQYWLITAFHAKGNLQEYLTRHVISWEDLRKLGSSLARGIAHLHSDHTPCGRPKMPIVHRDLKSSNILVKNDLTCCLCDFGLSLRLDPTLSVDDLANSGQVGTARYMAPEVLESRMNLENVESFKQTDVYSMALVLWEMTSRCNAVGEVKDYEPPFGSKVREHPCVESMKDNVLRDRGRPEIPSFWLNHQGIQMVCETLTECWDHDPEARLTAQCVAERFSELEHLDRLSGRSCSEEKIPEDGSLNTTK
# Method: Test Example 2: In vitro enzymatic activity inhibition test (TGFβR2).
# as §1, with “TGFβR2” for “TGFβR1”, “(1000nM, 100nM, 10nM)” for “(1000 nM, 100 nM, 10 nM)”, “myelin basic protein (MBP)” for “TGFβR1 peptide”, “The chemiluminescence” for “Chemiluminescence”
# as §2, with “percent inhibition was between” for “percent inhibition rate was between”
# [4] = Pharmacokinetics (PK) study in Balb/c mice; format: in vivo; conditions: female Balb/c mice; for F: PO 10 mg/kg compared with IV 1 mg/kg
# Method: Test Example 6: Pharmacokinetics (PK) study in Balb/c mice
# The example compounds were administered to female Balb/c mice via intravenous injection (IV) and gastric perfusion (PO), respectively, and their pharmacokinetic properties were investigated. The administered doses for IV and PO were 1 mg/kg and 10 mg/kg, respectively. The solvent for IV was 5% DMSO + 5% Solutol (15-hydroxystearic acid polyethylene glycol ester) + 90% normal saline, the solvent for PO was 0.5% MC ([…] methylcellulose). Whole blood samples were collected at various time points after IV and PO administration, and subjected to EDTA-K2 anticoagulation before test.
# Whole blood samples were processed by precipitating proteins and then subjected to LC-MS/MS analysis. The pharmacokinetic parameters were calculated by the non-compartmental model using WinNonlin 6.3 software, and the results were shown in Table 6 below. Table 6. Pharmacokinetic parameters of compounds in whole blood in mice
# [5] = mouse, IV, 1 mg/kg, whole blood
# [6] = mouse, IV, 1 mg/kg, whole blood, read-out: Cmax
# [7] = mouse, PO, 10 mg/kg, whole blood
# [8] = mouse, PO, 10 mg/kg, whole blood, read-out: Cmax
# [9] = PO, 10 mg/kg, whole blood, listed as Example VI
Compound,IC50 [3],F [4],"T1/2 ([4]; PO, 10 mg/kg, whole blood)","AUC(0-t) [4, 5]","clearance [4, 5]","Cmax [4, 6]","AUC(0-t) [4, 7]","half-life [4, 7]","Cmax [4, 8]",IC50 [1],IC50 [2],"AUClast ([4]; IV, 1 mg/kg, whole blood)","Cl ([4]; IV, 1 mg/kg, whole blood)","Cmax ([4]; IV, 1 mg/kg, whole blood)",F ([4]; listed as Example VI),"AUClast ([4]; PO, 10 mg/kg, whole blood)","Cmax ([4]; PO, 10 mg/kg, whole blood)","AUClast [4, 9]","Cmax [4, 9]","T1/2 [4, 9]"
"Cc1cccc(-n2nc3c(c2-c2ccn4nccc4c2)CCC3)n1 [Example 4, 5-[2-(6-methylpyridin-2-yl)-2,4,5,6-tetrahydrocyclopenteno [c]pyrazol-3-yl]pyrazolo[1,5-a]pyridine]",–,–,–,–,–,–,–,–,–,12 ± 5.4 nM,35 ± 2.69 nM,–,–,–,–,–,–,–,–,–
"Cc1cccc(-n2nc(NC(C)c3ccc(F)cc3)cc2-c2ccn3ncc(C(N)=O)c3c2)n1 (stereo not shown) [Example 10, 5-(3-(1-(4-fluorophenyl)ethylamino)-1-(6-methylpyridin-2-yl)-1H-pyrazol-5-yl)pyridino[1,5-a]pyridine-3-carboxamide]",> 1000 nM,–,–,–,–,–,–,–,–,4.82 ± 0.51 nM,43.1 ± 4.19 nM,–,–,–,–,–,–,–,–,–
"Cc1cccc(-n2nc3c(c2-c2ccn4ncc(C(N)=O)c4c2)CCC3)n1 [Example 6, 5-[2-(6-methylpyridin-2-yl)-2,4,5,6-tetrahydrocyclopenteno[c]pyrazol-3-yl]pyrazolo[1,5-a]pyridine-3-carboxamide]",–,61.4±9.5%,27.6 ± 11.4 min,–,–,–,–,–,–,2.36 ± 0.68 nM,20.1 ± 1 nM,578 ng·h/mL and 578 ± 4 ng·h/mL,28.4 mL/min/kg and 28.4 ± 0.3 mL/min/kg,1163 ng/mL and 1163 ± 58 ng/mL,61.4%,3586 ± 563 ng·h/mL,7440 ± 226 ng/mL,3586 ng·h/mL,7440 ng/mL,27.6 min

# Continued, in another order:
IC50 [3],F [4],"T1/2 ([4]; PO, 10 mg/kg, whole blood)","AUC(0-t) [4, 5]","clearance [4, 5]","Cmax [4, 6]","AUC(0-t) [4, 7]","half-life [4, 7]","Cmax [4, 8]",Compound,IC50 [1],IC50 [2],"AUClast ([4]; IV, 1 mg/kg, whole blood)","Cl ([4]; IV, 1 mg/kg, whole blood)","Cmax ([4]; IV, 1 mg/kg, whole blood)",F ([4]; listed as Example VI),"AUClast ([4]; PO, 10 mg/kg, whole blood)","Cmax ([4]; PO, 10 mg/kg, whole blood)","AUClast [4, 9]","Cmax [4, 9]","T1/2 [4, 9]"
593 ± 129 nM,–,–,–,–,–,–,–,–,"Cc1cccc(-n2nc(NCc3ccc(F)cc3)cc2-c2ccn3ncc(C(N)=O)c3c2)n1 [Example 11, 5-(3-(4-fluorobenzylamino)-1-(6-methylpyridin-2-yl)-1H-pyrazol-5-yl)pyrazolo[1,5-a]pyridine-3-carboxamide]",0.5 ± 0.21 nM,19.4 ± 1.52 nM,–,–,–,–,–,–,–,–,–
> 1000 nM,52.1% and 52.1±2.6%,31.2 ± 10.8 min,572 ng·h/mL,29.3 mL/min/kg,862 ng/mL,3040 ng·h/mL,31.2 min,5920 ng/mL,"Cc1cccc(-n2nccc2-c2ccn3ncc(C(N)=O)c3c2)n1 [Example 12, 5-(1-(6-methylpyridin-2-yl)-1H-pyrazol-5-yl)pyrazolo[1,5-a]pyridine-3-carboxamide]",9.39 ± 2.15 nM,26.6 ± 5.43 nM,–,–,–,–,–,–,–,–,–
> 1000 nM,98.1% and 98.1±15.0%,108 ± 21 min,458 ng·h/mL,35 mL/min/kg,917 ng/mL,4360 ng·h/mL,108 min,6270 ng/mL,"CNc1cc(-c2ccn3ncc(C(N)=O)c3c2)n(-c2cccc(C)n2)n1 [Example 8, 5-(3-(methylamino)-1-(6-methylpyridin-2-yl)-1H-pyrazol-5-yl)pyrazolo[1,5-a]pyridine-3-carboxamide]",8.27 ± 0.11 nM,29.9 ± 1.27 nM,–,–,–,–,–,–,–,–,–
